Consider 24 compounds from patent US10604523B2, “1-aryl-4-methyl-[1,2,4]triazolo[4,3-a]quinoxaline derivatives” (Janssen Pharmaceutica NV, priority 2011, dated 2020).

In test [1] the target is T1, Human recombinant PDE2A (hPDE2A) (Homo sapiens, UniProt O00408).
T1 construct: made in house; host or cells: Sf9 insect cells (baculovirus)
The experiment in a line: In vitro assay PDE2A (SPA, 3H-cGMP). Type of test: biochemical. As to conditions: read-out: pIC50 PDE2 (converted).
Protocol: Tested compounds were dissolved and diluted in 100% DMSO to a concentration 100 fold of the final concentration in the assay. Compound dilutions (0.4 μl) were added in 384 well plates to 20 μl of incubation buffer (50 mM Tris pH 7.8, 8.3 mM MgCl2, 1.7 mM EGTA). 10 μl of hPDE2A enzyme in incubation buffer was added and the reaction was started by addition of 10 μl substrate to a final concentration of 10 μM cGMP and 0.01 μCi ^3H-cGMP. The reaction was incubated for 45 minutes at room temperature. […] After sedimentation of the beads during 30 minutes the radioactivity was measured in a Perkin Elmer Topcount scintillation counter and results were expressed as cpm. For blanc values the enzyme was omitted from the reaction and replaced by incubation buffer. Control values were obtained by addition of a final concentration of 1% DMSO instead of compound.

Test [2] concerns the target T2, Rat recombinant PDE10A (rPDE10A2) (Rattus norvegicus, UniProt Q9QYJ6).
T2 construct: made in house; host or cells: Sf9 insect cells (baculovirus)
T2 sequence (Q9QYJ6 1-794): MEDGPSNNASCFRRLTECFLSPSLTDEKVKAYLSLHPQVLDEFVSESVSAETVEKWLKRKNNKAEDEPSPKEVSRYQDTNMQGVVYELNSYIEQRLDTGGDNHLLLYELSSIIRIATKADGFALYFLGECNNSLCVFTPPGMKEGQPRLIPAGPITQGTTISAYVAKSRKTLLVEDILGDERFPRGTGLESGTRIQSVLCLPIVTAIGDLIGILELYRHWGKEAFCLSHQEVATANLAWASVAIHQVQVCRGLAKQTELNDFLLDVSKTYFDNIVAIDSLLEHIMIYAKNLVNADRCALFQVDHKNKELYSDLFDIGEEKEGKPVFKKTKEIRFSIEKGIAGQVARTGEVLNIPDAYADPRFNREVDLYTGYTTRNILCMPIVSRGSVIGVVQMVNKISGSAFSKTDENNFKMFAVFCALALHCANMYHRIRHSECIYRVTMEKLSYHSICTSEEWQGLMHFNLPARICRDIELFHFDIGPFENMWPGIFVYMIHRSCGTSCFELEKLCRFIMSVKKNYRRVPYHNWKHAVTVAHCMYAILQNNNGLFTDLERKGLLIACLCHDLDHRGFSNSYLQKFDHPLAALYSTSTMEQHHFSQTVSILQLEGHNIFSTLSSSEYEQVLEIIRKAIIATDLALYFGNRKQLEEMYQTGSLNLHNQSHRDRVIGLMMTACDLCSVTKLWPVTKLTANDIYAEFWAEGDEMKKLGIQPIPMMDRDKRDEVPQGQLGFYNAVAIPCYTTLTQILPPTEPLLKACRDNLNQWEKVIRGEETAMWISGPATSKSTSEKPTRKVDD
The experiment in a line: In vitro assay PDE10A (SPA, 3H-cAMP). Type of test: biochemical. The following applies: read-out: PIC50 PDE10 (converted).

Test [3] concerns Apomorphine-induced agitation. Kind of test: Reversal of Apomorphine-induced Agitation in Rats (APO). As to conditions: for PO Max effect (cumulative agitation score over 60 min) / SC Max effect (cumulative agitation score over 60 min): apomorphine 1.0 mg/kg i.v.; for PO LAD (lowest active dose) / SC LAD (lowest active dose): lowest dose at which ≥67% tested animals respond; for SC Dose at max effect / SC Max effect (cumulative agitation score over 60 min) / SC LAD (lowest active dose): subcutaneous route. Type of test: in vivo, rat.
Protocol: Apomorphine (1.0 mg/kg, i.v.)-induced agitation was scored every 5 min over the first hour after injection of apomorphine. The score system was: (3) pronounced, (2) moderate, (1) slight, and (0) absent. […] For the present purpose, the cumulative agitation score over the whole 60-min observation period was used as a measure to describe the maximum effect (Max effect).

Like-named read-outs stand apart in the source and are kept apart here.

T1 sequence (O00408 whole entry): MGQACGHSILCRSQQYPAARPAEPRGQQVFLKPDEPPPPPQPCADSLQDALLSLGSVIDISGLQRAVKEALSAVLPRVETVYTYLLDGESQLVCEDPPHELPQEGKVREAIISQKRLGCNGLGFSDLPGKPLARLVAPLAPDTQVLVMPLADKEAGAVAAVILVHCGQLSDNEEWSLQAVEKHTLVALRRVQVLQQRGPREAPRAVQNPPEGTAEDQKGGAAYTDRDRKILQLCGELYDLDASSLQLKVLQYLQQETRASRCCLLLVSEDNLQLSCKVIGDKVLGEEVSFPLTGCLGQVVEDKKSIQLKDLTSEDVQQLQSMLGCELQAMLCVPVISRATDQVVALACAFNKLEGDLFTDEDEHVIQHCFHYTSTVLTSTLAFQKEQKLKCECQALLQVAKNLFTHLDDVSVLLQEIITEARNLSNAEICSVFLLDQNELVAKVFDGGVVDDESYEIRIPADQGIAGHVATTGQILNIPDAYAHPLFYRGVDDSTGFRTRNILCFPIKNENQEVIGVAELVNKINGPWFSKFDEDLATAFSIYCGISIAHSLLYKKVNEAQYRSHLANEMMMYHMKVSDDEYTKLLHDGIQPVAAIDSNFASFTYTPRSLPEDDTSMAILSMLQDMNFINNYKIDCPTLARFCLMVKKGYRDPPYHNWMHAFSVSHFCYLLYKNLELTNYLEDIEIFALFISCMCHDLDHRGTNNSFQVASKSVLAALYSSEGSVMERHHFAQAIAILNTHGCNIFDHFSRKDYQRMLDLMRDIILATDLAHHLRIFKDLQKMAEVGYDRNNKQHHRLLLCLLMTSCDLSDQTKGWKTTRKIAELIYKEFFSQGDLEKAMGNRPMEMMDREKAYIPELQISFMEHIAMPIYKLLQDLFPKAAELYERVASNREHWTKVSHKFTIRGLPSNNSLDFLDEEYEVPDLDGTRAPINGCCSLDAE

On to `COc1ccccc1-c1nnc2c(C)nc3ccc(C(=O)NCc4ccccn4)cc3n12` [Compound B-53], for which the IC50 in test [1] was 3.09 nM. Moreover, the IC50 in test [2] was 37.2 nM. Further, in test [3], the PO Dose at Max Effect came to 10 mg/kg, the “PO Max effect (cumulative agitation score over 60 min)” value was 24 and the PO LAD (lowest active dose) was more than 10 mg/kg.
For `C=Cc1ccc2nc(C)c3nnc(-c4ccccc4Cl)n3c2c1` [Compound B-14, 1-(2-Chlorophenyl)-8-ethenyl-4-methyl[1,2,4]triazolo[4,3-a]quinoxaline] the same measures were 7.08 nM, 37.2 nM, 10 mg/kg, 21 and more than 10 mg/kg.
Turning to `CCOC(=O)c1ccc2nc(C)c3nnc(-c4ccccc4Cl)n3c2c1` [Compound B-1a, Ethyl 1-(2-chlorophenyl)-4-methyl[1,2,4]triazolo[4,3-a]quinoxaline-8-carboxylate], in test [1], the IC50 is 4.27 nM. Besides, the IC50 in test [2] (-log IC50 expressed in mol/L, rPDE10A2, 60 nM cAMP) is 58.9 nM. Moreover, in test [3], the PO Dose at Max Effect amounted to 2.5 mg/kg, the “PO Max effect (cumulative agitation score over 60 min)” value is listed as 22 and the PO LAD (lowest active dose) was more than 2.5 mg/kg.
Regarding `Cc1nc2cc(Br)ccc2n2c(-c3ccccc3Cl)nnc12` [Compound B-3b, 7-Bromo-1-(2-chlorophenyl)-4-methyl[1,2,4]triazolo[4,3-a]quinoxaline], the IC50 in test [1] was 60.3 nM. In test [2], the IC50 was 191 nM. In addition, in test [3], the PO Dose at Max Effect came out at 10 mg/kg, the “PO Max effect (cumulative agitation score over 60 min)” value came out at 22 and the PO LAD (lowest active dose) was more than 10 mg/kg.
For `COCCNc1ccc2nc(C)c3nnc(-c4ccccc4Cl)n3c2c1` [Compound B-67], in that order: 6.17 nM, 15.5 nM, 10 mg/kg, 21 and more than 10 mg/kg.
For `COc1ccc(Cl)c(-c2nnc3c(C)nc4ccc(C(=O)NCc5ccccn5)cc4n23)c1` [Compound B-43] the same measures were 1.62 nM, 43.7 nM, 10 mg/kg, 19 and 10 mg/kg.
Consider `Cc1nc2ccc(CN3CCOC(CF)C3)cc2n2c(-c3ccccc3Cl)nnc12` (stereo not drawn) [Compound B-59], for which the IC50 in test [1] was 4.9 nM. In addition, the IC50 in test [2] was 23.4 nM. In test [3], the SC Dose at max effect is 10 mg/kg, the “SC Max effect (cumulative agitation score over 60 min)” value is reported as 15 and the SC LAD (lowest active dose) amounted to 10 mg/kg.
`CCOc1ccc(Cl)c(-c2nnc3c(C)nc4ccc(CN5CCN(C)CC5)cc4n23)c1` [Compound B-145]: the IC50 in test [1] was 40.7 nM. Besides, the IC50 in test [2] was 240 nM. For the same compound, in test [3], the SC Dose at max effect was 10 mg/kg, the “SC Max effect (cumulative agitation score over 60 min)” value worked out at 22 and the SC LAD (lowest active dose) is more than 10 mg/kg.
As to `Cc1nc2ccc(C(=O)NCc3ccccn3)cc2n2c(-c3cc(Cl)ccc3Cl)nnc12` [Compound B-11, 1-(2,5-Dichlorophenyl)-4-methyl-N-(pyridin-2-ylmethyl)[1,2,4]triazolo[4,3-a]quinoxaline-8-carboxamide], in test [1], the IC50 was 1.62 nM. Further, the IC50 in test [2] is 33.9 nM. Further, in test [3], the PO Dose at Max Effect came out at 10 mg/kg, the “PO Max effect (cumulative agitation score over 60 min)” value worked out at 19 and the PO LAD (lowest active dose) is more than 10 mg/kg.
On to `Cc1nc2ccc(NCCN3CCOCC3)cc2n2c(-c3ccccc3Cl)nnc12` [Compound B-71], for which the IC50 in test [1] was 6.31 nM. Moreover, the IC50 in test [2] is 19.1 nM. Also, in test [3], the SC Dose at max effect was found to be 10 mg/kg, the “SC Max effect (cumulative agitation score over 60 min)” value stood at 15 and the SC LAD (lowest active dose) was determined as 10 mg/kg.
Consider `Cc1nc2ccc(C(=O)NCCF)cc2n2c(-c3ccccc3Cl)nnc12` [Compound B-40], for which the IC50 in test [1] is 1.02 nM. For the same compound, the IC50 in test [2] is 18.6 nM. In test [3], the PO Dose at Max Effect stood at 10 mg/kg, the “PO Max effect (cumulative agitation score over 60 min)” value stood at 22 and the PO LAD (lowest active dose) was more than 10 mg/kg.
`COCC1CCN(Cc2ccc3nc(C)c4nnc(-c5ccccc5Cl)n4c3c2)C1` (stereo not drawn) [Compound B-94]: in test [1], the IC50 was 12.9 nM. The IC50 in test [2] was 64.6 nM. For the same compound, in test [3], the SC Dose at max effect stood at 5 mg/kg, the “SC Max effect (cumulative agitation score over 60 min)” value turned out to be 24 and the SC LAD (lowest active dose) is more than 5 mg/kg.
As to `Cc1nc2ccc(CN3CCOC(CCO)C3)cc2n2c(-c3ccccc3Cl)nnc12` (stereo not drawn) [Compound B-63], the IC50 in test [1] was 5.62 nM. In addition, in test [2], the IC50 was 9.33 nM. Further, in test [3], the SC Dose at max effect was 10 mg/kg, the “SC Max effect (cumulative agitation score over 60 min)” value is 19 and the SC LAD (lowest active dose) was determined as 10 mg/kg.
Take `Cc1nc2ccc(CNc3cccnc3)cc2n2c(-c3ccccc3Cl)nnc12` [Compound B-50]: the IC50 in test [1] is 2.34 nM. The IC50 in test [2] was 11 nM. In test [3], the SC Dose at max effect worked out at 10 mg/kg, the “SC Max effect (cumulative agitation score over 60 min)” value is 22 and the SC LAD (lowest active dose) is more than 10 mg/kg.
Regarding `Cc1nc2ccc(CN[C@H]3CC[C@H](O)CC3)cc2n2c(-c3ccccc3Cl)nnc12` [Compound B-90], the IC50 in test [1] is 12 nM. In addition, the IC50 in test [2] was 50.1 nM. In addition, in test [3], the SC Dose at max effect was determined as 10 mg/kg, the “SC Max effect (cumulative agitation score over 60 min)” value stood at 25 and the SC LAD (lowest active dose) is more than 10 mg/kg.
On to `Cc1nc2ccc(N3CCN(C)CC3)cc2n2c(-c3ccccc3Cl)nnc12` [Compound B-16, 1-(2-Chlorophenyl)-4-methyl-8-(4-methylpiperazin-1-yl)[1,2,4]triazolo[4,3-a]quinoxaline], for which the IC50 in test [1] was 5.25 nM. Also, in test [2], the IC50 was 26.9 nM. In addition, in test [3], the SC Dose at max effect worked out at 2.5 mg/kg, the “SC Max effect (cumulative agitation score over 60 min)” value is 21 and the SC LAD (lowest active dose) is more than 2.5 mg/kg.
Regarding `Cc1nc2ccc(C(=O)NCCCc3ccccc3)cc2n2c(-c3ccccc3)nnc12` [Compound B-77], the IC50 in test [1] is 7.41 nM. Further, the IC50 in test [2] was 77.6 nM. Moreover, in test [3], the PO Dose at Max Effect turned out to be 2.5 mg/kg, the “PO Max effect (cumulative agitation score over 60 min)” value amounted to 21 and the PO LAD (lowest active dose) was more than 2.5 mg/kg.
For `Cc1nc2ccc(NCCc3ccccn3)cc2n2c(-c3ccccc3Cl)nnc12` [Compound B-60], in that order: 5.01 nM, 6.61 nM, 10 mg/kg, 21 and more than 10 mg/kg.
For the compound `Cc1nc2ccc(C(=O)NCCN3CCCCC3)cc2n2c(-c3ccccc3Cl)nnc12` [Compound B-45], in test [1], the IC50 was 1.95 nM. The IC50 in test [2] is 74.1 nM. For the same compound, in test [3], the SC Dose at max effect worked out at 10 mg/kg, the “SC Max effect (cumulative agitation score over 60 min)” value is reported as 21 and the SC LAD (lowest active dose) is more than 10 mg/kg.
For `Cc1nc2ccc(CN3CCC(F)CC3)cc2n2c(-c3ccccc3Cl)nnc12` [Compound B-61] the same measures were 5.5 nM, 20 nM, 10 mg/kg, 15 and 10 mg/kg.
Turning to `CCOCc1ccc2nc(C)c3nnc(-c4ccccc4)n3c2c1` [Compound B-12, 8-(Ethoxymethyl)-4-methyl-1-phenyl[1,2,4]triazolo[4,3-a]quinoxaline], the IC50 in test [1] is 21.4 nM. In addition, the IC50 in test [2] is 269 nM. Also, in test [3], the SC Dose at max effect came to 10 mg/kg, the “SC Max effect (cumulative agitation score over 60 min)” value turned out to be 19 and the SC LAD (lowest active dose) came to 10 mg/kg.
Turning to `Cc1nc2ccc(C(=O)NCc3ccncc3)cc2n2c(-c3ccccc3)nnc12` [Compound B-83], the IC50 in test [1] was 9.77 nM. In addition, the IC50 in test [2] is 102 nM. Further, in test [3], the SC Dose at max effect amounted to 2.5 mg/kg, the “SC Max effect (cumulative agitation score over 60 min)” value worked out at 29 and the SC LAD (lowest active dose) is more than 10 mg/kg.
Regarding `CCOc1ccc(Cl)c(-c2nnc3c(C)nc4ccc(Br)cc4n23)c1` [Compound B-85], the IC50 in test [1] is 10.7 nM. Moreover, the IC50 in test [2] is 123 nM. Also, in test [3], the PO Dose at Max Effect worked out at 10 mg/kg, the “PO Max effect (cumulative agitation score over 60 min)” value came to 21 and the PO LAD (lowest active dose) is more than 10 mg/kg.
Turning to `COc1ccc(Cl)c(-c2nnc3c(C)nc4ccc(CN5CCC(F)CC5)cc4n23)c1` [Compound B-97], the IC50 in test [1] is 14.1 nM. In test [2], the IC50 is 77.6 nM. Also, in test [3], the SC Dose at max effect was 10 mg/kg, the “SC Max effect (cumulative agitation score over 60 min)” value is reported as 19 and the SC LAD (lowest active dose) came out at 10 mg/kg.
